“Also recorded” adds a separate entry of the source.
How the values were obtained:
[1] = target: T1, EP300-BRD (Homo sapiens, UniProt Q09472); test: BROMOscan ligand binding site-directed competition assay, EP300
T1 construct: T7 phage display fusion with DNA tag for qPCR; purchased Eurofins Discovery (BROMOscan service); host or cells: E. coli infected with T7 phage
T1 sequence (Q09472 1049-1156 limits assumed): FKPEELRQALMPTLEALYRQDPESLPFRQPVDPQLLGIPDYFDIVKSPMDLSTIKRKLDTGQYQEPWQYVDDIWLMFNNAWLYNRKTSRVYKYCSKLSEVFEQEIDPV
Protocol: 2. Methods and General Procedures […]
KD values were determined using BROMOscan™ technology, carried out by Eurofins […]
Discovery according to their standard protocol. Briefly E. coli were infected with T7 phage […]
strains displaying bromodomains and bromodomain protein was subsequently purified […]
through lysis, centrifugation and filtration. Affinity resins were generated by incubation of […]
streptavidin-coated magnetic beads with biotinylated small molecules or acetylated […]
peptide ligands. Binding reactions were assembled by combining the bromodomains and […]
liganded affinity beads in binding buffer (17 % SeaBlock, 0.33x PBS, 0.04 % Tween 20, […]
0.02 % BSA, 0.004 % sodium azide and 7.4 mM DTT) with compounds (11-point, 3-fold […]
dilution series) added to give a final DMSO concentration of 0.09 %. Assay plates were […]
incubated for 1 h, prior to washing and elution of beads. The bromodomain concentration […]
in the eluates was measured by qPCR of the DNA tag on the bromodomain.
KD values were calculated with a standard dose-response curve fitted using the Hill […]
Response = Background + Signal − Background […]
The Hill Slope was set to -1 and curves fitted using a non-linear least square fit with the Levenberg-Marquardt algorithm.
Ligand efficiency (LE) was calculated as follows: LE = 1.4(pIC50)/N

[2] = test system: LNCaP cells; test: Cell viability (resazurin), LNCaP; format: cell-based; conditions: 3 day treatment
Protocol: normalized to DMSO treated lanes on the same membrane. (Several compounds were
measured at the same time, so DMSO treated lanes are replicated here between
Figure S5. Anti-proliferation in additional cell lines. LNCaP (A and C) and SH-SY5Y (B)
cell viability following 3 day compound treatment, and LNCaP following 6 day treatment
(D), determined using resazurin.
After 3 days of treatment, dCE-2 only has a mild effect on the proliferation of LNCaP and
SH-SY5Y cells (Figure S5A and B).
the new CBP/EP300 PROTACs CBPD -268 and CBPD-4092,3 which have enhanced anti-
proliferative activity in LNcaP cells relative to their parent inhibitor s. However, although
these PROTACs have effects at very low concentrations, their effect plateaus and a
substantial proportion of cells remain viable at high compound concentrations. Similarly,
degradation of CBP and EP300, the maximal effect of this PROTAC is also limited under
the conditions we used (Figure S5C). Through this work it was clear to us that these […]
proliferation. […]
concentrations of CRBN, as determined through competition with acetylated peptide […]
Fluorescence (excitation = 560 nm, emission = 590 nm) was measured using a
spectraMax M5 microplate reader (Molecular Devices) and cell viability was calculated […]
values were calculated as the concentration required to inhibit cell viability to 50 % […]

Cc1cc2c(NC(=O)c3cc(NC(=O)CCCCCCCCCCNc4cccc5c4C(=O)N(C4CCC(=O)NC4=O)C5=O)cc(-c4ccn(C)n4)c3)cccc2nn1 (stereo not drawn) [dCE-2]
Kd ([1]; BROMOscan): > 10 µM
loss of potency compared to parent compound 3, EP300 ([1]; BROMOscan KD ratio): > 400 fold
effect on proliferation of LNCaP cells [2]: mild effect; also recorded: limited effect

Source: PMC11423305, “Structure-Based Design of CBP/EP300 Degraders: When Cooperativity Overcomes Affinity” (JACS Au, 2024)
